Source: ChEMBL document CHEMBL5653631, “A Potent and Selective ULK1 Inhibitor Suppresses Autophagy and Sensitizes Cancer Cells to Nutrient Stress” (iScience, 2018)

Experiments:
[1] = biological target: T1, Serine/threonine-protein kinase Nek9 (Homo sapiens) (UniProt Q8TD19); test: Inhibition of human recombinant NEK9 at 15 nM related to control ULK1
T1 sequence (whole entry): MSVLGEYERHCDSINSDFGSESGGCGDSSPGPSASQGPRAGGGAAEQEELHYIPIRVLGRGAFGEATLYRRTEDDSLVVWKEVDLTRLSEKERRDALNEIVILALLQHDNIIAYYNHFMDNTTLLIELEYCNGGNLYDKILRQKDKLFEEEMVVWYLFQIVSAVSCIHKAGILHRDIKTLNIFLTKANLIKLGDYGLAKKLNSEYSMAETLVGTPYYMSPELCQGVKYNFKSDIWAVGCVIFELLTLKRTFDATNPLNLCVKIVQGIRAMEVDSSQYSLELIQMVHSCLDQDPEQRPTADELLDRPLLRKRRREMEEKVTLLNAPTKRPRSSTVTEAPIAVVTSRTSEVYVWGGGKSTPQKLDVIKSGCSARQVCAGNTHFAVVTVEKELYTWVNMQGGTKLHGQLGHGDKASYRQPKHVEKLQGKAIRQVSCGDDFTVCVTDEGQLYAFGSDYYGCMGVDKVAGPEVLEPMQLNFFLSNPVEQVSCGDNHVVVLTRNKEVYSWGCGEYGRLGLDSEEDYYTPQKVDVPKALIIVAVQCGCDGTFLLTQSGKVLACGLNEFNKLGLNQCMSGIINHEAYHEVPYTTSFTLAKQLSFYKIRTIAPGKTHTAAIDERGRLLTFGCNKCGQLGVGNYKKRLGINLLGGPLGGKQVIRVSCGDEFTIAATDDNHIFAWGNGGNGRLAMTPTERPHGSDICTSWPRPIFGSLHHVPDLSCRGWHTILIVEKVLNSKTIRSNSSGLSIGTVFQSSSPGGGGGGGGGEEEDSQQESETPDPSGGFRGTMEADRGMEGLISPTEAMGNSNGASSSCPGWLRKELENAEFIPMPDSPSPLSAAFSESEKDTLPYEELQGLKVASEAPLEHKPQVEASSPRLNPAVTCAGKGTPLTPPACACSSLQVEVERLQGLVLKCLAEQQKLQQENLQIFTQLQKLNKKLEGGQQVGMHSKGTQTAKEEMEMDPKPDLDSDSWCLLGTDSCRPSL

[2] = biological target: T2, MAP/microtubule affinity-regulating kinase 4 (Homo sapiens) (UniProt Q96L34); test: Inhibition of human recombinant MARK4 at 15 nM related to control ULK1
T2 sequence (whole entry): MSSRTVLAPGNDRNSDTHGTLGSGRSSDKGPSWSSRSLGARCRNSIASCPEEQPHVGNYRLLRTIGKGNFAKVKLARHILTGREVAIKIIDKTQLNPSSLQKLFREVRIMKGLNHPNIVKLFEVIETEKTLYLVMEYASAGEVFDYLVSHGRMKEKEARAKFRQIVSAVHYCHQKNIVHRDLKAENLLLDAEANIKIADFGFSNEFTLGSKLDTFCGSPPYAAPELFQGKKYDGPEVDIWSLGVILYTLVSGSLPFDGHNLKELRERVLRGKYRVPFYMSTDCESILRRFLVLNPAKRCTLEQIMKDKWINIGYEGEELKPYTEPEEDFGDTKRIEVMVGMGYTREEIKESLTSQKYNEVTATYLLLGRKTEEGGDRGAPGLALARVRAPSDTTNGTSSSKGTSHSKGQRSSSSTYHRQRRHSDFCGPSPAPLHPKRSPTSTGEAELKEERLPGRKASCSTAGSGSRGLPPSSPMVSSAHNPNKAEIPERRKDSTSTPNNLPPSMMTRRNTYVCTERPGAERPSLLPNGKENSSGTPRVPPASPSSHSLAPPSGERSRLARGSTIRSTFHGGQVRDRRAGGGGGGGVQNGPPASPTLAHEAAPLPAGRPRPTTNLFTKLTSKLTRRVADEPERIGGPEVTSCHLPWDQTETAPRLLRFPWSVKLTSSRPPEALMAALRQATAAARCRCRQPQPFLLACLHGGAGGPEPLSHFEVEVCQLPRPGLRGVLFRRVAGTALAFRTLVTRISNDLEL

[3] = biological target: T3, Inhibitor of nuclear factor kappa-B kinase subunit alpha (Homo sapiens) (UniProt O15111); test: Inhibition of human recombinant IKKa at 500 nM in presence of ATP by radiometric assay relative to control
T3 sequence (whole entry): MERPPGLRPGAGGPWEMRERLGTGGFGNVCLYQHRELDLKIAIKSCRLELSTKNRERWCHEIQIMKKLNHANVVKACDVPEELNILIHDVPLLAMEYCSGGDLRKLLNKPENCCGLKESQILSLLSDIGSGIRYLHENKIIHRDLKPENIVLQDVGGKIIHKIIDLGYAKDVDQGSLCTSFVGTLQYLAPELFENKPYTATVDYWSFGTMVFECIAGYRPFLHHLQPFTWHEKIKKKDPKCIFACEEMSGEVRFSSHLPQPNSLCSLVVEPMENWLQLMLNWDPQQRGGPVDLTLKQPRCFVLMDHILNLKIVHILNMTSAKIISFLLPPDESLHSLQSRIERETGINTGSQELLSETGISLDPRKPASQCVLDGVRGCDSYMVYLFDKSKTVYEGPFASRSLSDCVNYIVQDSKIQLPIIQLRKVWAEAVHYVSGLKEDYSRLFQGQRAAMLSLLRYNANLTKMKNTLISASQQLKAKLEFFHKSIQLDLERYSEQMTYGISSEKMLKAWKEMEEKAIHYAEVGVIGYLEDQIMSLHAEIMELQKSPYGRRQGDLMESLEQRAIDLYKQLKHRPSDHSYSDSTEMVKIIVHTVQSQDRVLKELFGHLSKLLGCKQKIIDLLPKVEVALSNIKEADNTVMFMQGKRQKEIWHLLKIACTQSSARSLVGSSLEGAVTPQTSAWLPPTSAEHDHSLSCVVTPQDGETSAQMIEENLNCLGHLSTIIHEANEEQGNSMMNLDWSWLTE

Compound `CC(C)[C@H](NC(=O)c1cc(-c2cnn3cc(-c4ccc(OCCN5CCCCC5)cc4)cnc23)cs1)C(F)(F)F` has a fold change (FC) [1] of 0.25 and a fold change (FC) [2] of 0.48.
`CNC(=O)c1ccccc1Oc1nc(Nc2cc(OC)c(OC)c(OC)c2)ncc1Br` gave an inhibition [3] of 2%.
